Reference: PMC11798738, “Targeting ASK1 by CS17919 alleviates kidney‐ and liver‐related diseases in murine models” (Animal Models and Experimental Medicine, 2024)
Marks after values point to notes of the source that are not given here.

Tests used:
L02 cells = experiment: Effects of the drugs on L02 cells (Figure S1C); format: cell-based, human; conditions: 0.3–10 μmol/L
Procedure: FIGURE S1 (A) Chemical structural formulae of CS17919 and GS-4997. (B) Viability of L02 cells 72 h after 25–800 μmol/L (2-fold dilution) PA stimulation. (C) The effects of CS17919 and GS-4997 at different doses (0.3–10 μmol/L) on L02 cells. (D) Kidney weights in the UUO model. (E) Renal coefficients in the DKD model. (F) Urine ALB in the DKD model. (G) Liver weights in the NASH model. *: PA vs. Blank; GS-4997 vs. DMSO; Treatment vs. Model. #: CS17919 vs. DMSO; Control vs. Model. * p < 0.05, ## p < 0.01, *** p < 0.001, #### and **** p < 0.0001 were obtained by one-way ANOVA.

HEK‐293A = experiment: MTS cytotoxicity assay, HEK-293A; format: cell-based, human; conditions: 72 h
Procedure: Human embryonic kidney cells (HEK‐293A), human hepatocellular carcinoma cells (HUH7), human embryonic liver diploid cells (CCC‐HEL‐1) and human embryonic lung cells (MRC‐5) were selected for the cytotoxicity study of both drugs, using the MTS assay protocol. Cells were cultured at 37°C with 5% CO2 using an appropriate medium. For the assay, the cells were evenly distributed at 1E4 cells/well in 96‐well plates, and then CS17919 or GS‐4997 was added to the plates in a dose‐dependent manner (3‐fold dilution from 100 μmol/L). After 72 h of incubation, 30 μL of MTS solution was added to each well, and the cells were then incubated for 2–4 h in the dark. The absorbance value of each well at 490 nm was measured using an enzymatic plate reader and the IC50 for each drug and each cell line was calculated. Cell viability and cytoxicity experiments were repeated three times.

DKD mouse model = experiment: STZ + HFD-induced DKD mouse model; format: in vivo, mice; conditions: 50 mg/kg gavage twice a day, ten weeks
Procedure: 26 male neonatal mice were purchased from Chengdu Pharmachem Biotechnology Co., 5 of which were assigned to the control group and fed a chow diet. The other 21 mice were subcutaneously injected with STZ ([…]) 48 h after birth. After 4 weeks, these mice were fed a high‐fat diet (HFD, Research Diet, New Brunswick, NJ, USA) and randomly subdivided into two groups based on blood glucose level followed by 6 h of fasting: Model (n = 11) and CS17919 (n = 10). Both the control and model groups were given the solvent mentioned above, administered orally twice a day, while CS17919 was administered twice a day by gavage at a dose of 50 mg/kg for 70 days. Body weight measurements were performed twice a week during the administration period. 24‐h urine was collected for each mouse 2 days before sacrifice. Creatinine clearance was calculated using the following formula: creatinine clearance = urinary creatinine (mg/dL) × urine volume per minute (ml/min)/blood creatinine (mg/dL). Fasting blood glucose was measured before sacrifice. After a 10‐week drug intervention, mice were sacrificed, and blood was collected to isolate serum for the urea nitrogen and serum creatinine test. The kidneys of each mouse were then removed, weighed and fixed in 10% formalin solution for pathological study.
PAS staining was applied to determine kidney glomerular sclerosis in the DKD model. Thin 4 μm paraffin sections of each sample were used in this study, which followed the standard procedure. Periodic acid‐treated paraffin sections were stained using Schiff for 10 min, after rinsing the residual acid. Hematoxylin staining was performed for 3 min, and the samples were then dehydrated and sealed. The PAS score was calculated by semiquantitative analysis as follows: 0, without sclerosis; 1, 1%–25% sclerosis area; 2, 26%–50% sclerosis area; 3, 51%–75% sclerosis area; 4, >75% sclerosis area.

NASH mouse model = experiment: CCL4- and HFD-induced NASH mouse model; format: in vivo, C57BL/6J mice; conditions: CS17919 20 mg/kg
Procedure: 41 C57BL/6J mice, male, 6–8 weeks of age, were purchased from Chengdu Dossy Experimental Animal Co. (Chengdu, China), 9 of which were assigned in the control group and fed a chow diet. The other 32 mice were fed a HFD (D12429, Research diet, USA). After 8 weeks of feeding, these mice with HFD were subcutaneously injected with CCL4 (0.1 mL/kg) twice a week. These mice were then randomly subdivided into 4 groups according to serum ALT and AST at week 12: Model (n = 8), CS17919 (n = 8), CS27109 (n = 8), and Combination (n = 8). Both the control and model groups were given the solvent mentioned above, administered orally twice a day, while CS17919 was administered twice a day by gavage at a dose of 20 mg/kg and CS27109 was administered twice a day by gavage at a dose of 10 mg/kg for 4 weeks. The body weight of each mouse was measured every 3 days during the drug intervention. All animals were fasted overnight after the last drug administration and blood was collected to isolate serum for biochemical tests including AST, ALT, TG, TC, HDL‐c, and LDL‐c. The liver of each mouse was removed, the right lobe of which was fixed in 10% formalin solution for pathological study.
H&E staining was applied to determine scores for liver steatosis, ballooning and inflammation in the NASH model. Thin 4 μm paraffin sections of each sample were used to assess liver histology, following a standard protocol. Paraffin sections were deparaffinized and placed in Hematoxylin staining solution for 3–8 min before using tap water to elute excess Hematoxylin. Sections were stained in Eosin stain for about 1–3 min and rinsed with tap water. Finally, the slices were dehydrated and sealed. Score ranges were 0–3 for liver steatosis, 0–2 for ballooning and 0–12 for inflammation (which included scores of 0–3 for portal inflammation, 0–3 for lobular inflammation, 0–3 for piecemeal necrosis, and 0–3 for bridging necrosis).
Sirius Red staining was applied to determine liver fibrosis in the NASH model. Thin 4 μm paraffin sections of each sample were used in this study followed the standard procedure. Sections were first stained with Hematoxylin for 5–10 min, then washed and stained with Sirius Red stain about 15–30 min. Finally, the sections were rinsed and sealed. Image‐Pro Plus 6.0 was used for analyzing the area of liver fibrosis and the percentage of the fibrosis area in each section was calculated.

[1] = Metabolic stability in liver microsomes; format: in vitro ADME; conditions: Rat
[2] = 4 weeks, CS27109 10 mg/kg twice a day
[3] = serum after 4 weeks, CS27109 10 mg/kg, gavage twice a day, mean ± SD

## Cc1cc(F)c(C(=O)Nc2cccc(-c3nncn3[C@H](C)C(F)(F)F)n2)cc1NC(=O)C1CC1 [CS17919]
L02 cells
  Safety in L02 cells: safer than GS‐4997
HEK‐293A
  Cytotoxicity (cell viability): barely affected cell viability
DKD mouse model
  Blood glucose: mildly reduced
  Body weight: slight weight loss
  Creatinine clearance: non‐significant tendency to improve
  Glomerular sclerosis score (PAS staining) vs model group: significantly reduced
  Insulin sensitivity (serum insulin) vs model group: slightly increased
  Renal coefficients: improved
  Serum creatinine: significantly lowered
  Serum urea nitrogen: non‐significant tendency to reduce
NASH mouse model; [2]
  Liver fibrosis area (Sirius Red staining): significantly reduced
  Liver inflammation score (H&E): tended to improve
  Liver steatosis and ballooning scores (H&E): barely improved
NASH mouse model; [3]
  ALT: 120.9 ± 80.3^a U/L
  AST: 193.3 ± 110.1 U/L
  HDL‐C: 0.604 ± 0.231 mmol/L
  LDL‐C: 0.054 ± 0.028^a mmol/L
  TC: 0.719 ± 0.251 mmol/L
  TG: 0.223 ± 0.106 mmol/L
[1]
  T1/2 in liver microsomes: >145 min
